In PubChem BioAssay AID651630 (Sanford-Burnham Center for Chemical Genomics, 2012):
Activity calls are given as the source filed them.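 The calls were made as follows: active = lipid-stain IC50 at or below a set limit, with nuclear-stain toxicity IC50 at least five times higher; inactive = the rest.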

Assays:
DAPI = experiment: TAG lipid buildup inhibition with viability readout – cell-based, panel, Nile Red and DAPI fluorescence, H9c2, dose response (AID 651630); details: H9c2 cells, DAPI nuclear fluorescence (cytotoxicity counter-readout), oleic acid;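 also: cells exposed to compound overnight before fixation and staining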
TAG = experiment: as above; details: H9c2 cells, Nile Red TAG fluorescence, oleic acid

Row | SMILES | IC50 cytotoxicity (DAPI nuclear signal decrease) (DAPI; mean of runs) | IC50 cytotoxicity (DAPI nuclear signal decrease) (DAPI; run 1) | IC50 cytotoxicity (DAPI nuclear signal decrease) (DAPI; run 2) | IC50 (TAG; mean of runs) | IC50 (TAG; run 1) | IC50 (TAG; run 2)
1 | Cc1cc(N/N=C/c2cccc(Cl)c2)nc(-n2nc(C)cc2C)n1 | > 25 µM (inactive) | > 25 µM | > 25 µM | > 25 µM (inactive) | > 25 µM | > 25 µM
2 | COc1ccc(Oc2nc(-c3ccccn3)nc3ccccc23)cc1 | > 25 µM (inactive) | > 25 µM | > 25 µM | > 25 µM (inactive) | > 25 µM | > 25 µM
3 | C=CCNc1nc(Nc2ccc(OC)c(OC)c2)c2sc(-c3ccccc3)cc2n1 | > 25 µM (inactive) | > 25 µM | > 25 µM | 5.16 µM | 7.19 µM | 3.13 µM
4 | CCO[C@@H]1OC(C(=O)N2CCN(Cc3ccccc3)CC2)=C[C@H](c2ccc(C(F)(F)F)cc2)[C@H]1CCCO | > 25 µM (inactive) | > 25 µM | > 25 µM | 11.4 µM | 11.2 µM | 11.6 µM
5 | O=C(CSc1nc2ccc(Nc3nc(N4CCOCC4)nc(N4CCOCC4)n3)cc2s1)NCc1ccco1 | > 25 µM (inactive) | > 25 µM | > 25 µM | 7.1 µM | 7.74 µM | 6.45 µM
6 | C[C@@H]1CN([C@H](C)CO)C(=O)c2cccc(NC(=O)Nc3ccc(C(F)(F)F)cc3)c2O[C@H]1CN(C)S(=O)(=O)c1cccs1 | > 25 µM (inactive) | > 25 µM | > 25 µM | 15.9 µM (inactive) | 13.8 µM | 18 µM
7 | NC(Cc1ccc(Cl)cc1)c1csc(NC(=O)NCCc2ccccc2)n1 (stereo unspecified) | 19.7 µM (inactive) | 19 µM | 20.4 µM | > 25 µM (inactive) | > 25 µM | > 25 µM
8 | COc1cc(/C=C2\Oc3ccc(C#Cc4ccc(O)cc4)cc3C2=O)cc(OC)c1 | 4.72 µM (inactive) | 5.07 µM | 4.36 µM | 3.01 µM | 3.1 µM | 2.92 µM
9 | CC(=O)c1ccc(Oc2cc(C)nc(-n3nc(C)cc3C)n2)cc1 | > 25 µM (inactive) | > 25 µM | > 25 µM | 11.5 µM | 10.4 µM | 12.5 µM
10 | CCc1nc(C)c(C(=O)N2CCCC(C(=O)Nc3cccc(-c4cccc(C)c4)c3)C2)o1 (stereo unspecified) | > 25 µM (inactive) | > 25 µM | > 25 µM | > 25 µM (inactive) | > 25 µM | > 25 µM
11 | Cc1noc(C)c1COc1cccc(C(=O)OCC(=O)N2CC(=O)Nc3ccccc32)c1 | > 25 µM (inactive) | > 25 µM | > 25 µM | 15.4 µM (inactive) | 11.2 µM | 19.7 µM
